In brackets after ≈: the same amount, converted by molar mass.
Experiments:
Format in all cases: cell-based
[1] = system: colistin resistant MCR (−) E. Coli strains; test: Synergy study: colistin MIC in the presence of compound
Description: (§1) The MICs of the individual drugs and LC compound in combinations were determined using the broth microdilution technique as recommended by the CLSI whereby the two anti-microbial agents were added in an equal amount. (e.g.: 50 μL of Colistin: 50 μL of LC compounds). Diluted media containing compounds and antibiotics will be serially diluted 2-fold, and LC compounds and antibiotics alone or in combination will be assayed at fixed synergy concentration. In all cases, the lowest concentration at which no visible growth occurred was be recorded to be the MIC value of individual and combined antibacterial agents. The results were obtained after 24 hours of incubation.

[2] = system: colistin resistant MCR (−) E. Cloacae strain 7023456439; test: as above; details: strain 7023456439 E. Cloacae
Description: as §1

[3] = system: colistin resistant MCR (−) E. Coli strains; test: MIC, broth microdilution, compound alone
Description: (§2) MIC experiments of the antimicrobial agents were determined by a modified broth microdilution method in accordance with the Clinical and Laboratory Standards Institute (CLSI) guidelines using 96 well culture plates. In brief, serial dilutions of all plates were prepared at different concentrations (μg). The inoculum suspension was prepared by adding isolated colonies from a 18-20 hours on TSA plate into phosphate buffer (0.31 mM, pH 7.2) or in water for injection (BBraun) and adjusting the suspension to a turbidity equivalent to 0.5 McFarland Standard. Each well contained a final bacterial concentration of approximately 5×10^5 colony forming units (CFU)/mL. The plate was covered and incubated at 35° C. for 24 hours. […] For the microdilution plates, turbidity in wells can be measured at OD600 using TECAN infinite M200Pro. MIC was determined as […] concentration that gives a 99 percent inhibition.

[4] = system: colistin resistant MCR (+) E. Coli strains; test: MIC, broth microdilution, compound alone; details: compound alone
Description: as §2

[5] = system: colistin resistant MCR (−) E. Cloacae strain 7023456439; test: MIC, broth microdilution, compound alone; details: strain 7023456439 E. Cloacae
Description: as §2

[6] = system: colistin resistant MCR (+) E. Coli strains; test: Synergy study: colistin MIC in the presence of compound
Description: as §1

[7] = strain 6083672926, MCR(−), compound at 5 μg (Table 2a: 5 ug/ml)
[8] = strain 7023446108, MCR(−), compound at 5 μg (Table 2a: 5 ug/ml)
[9] = strain 7033607097, MCR(−), compound at 5 μg (Table 2a: 5 ug/ml)
[10] = compound at 5 μg (Table 2a: 5 ug/ml)
[11] = strain 6083672926, MCR(−), compound at 10 μg (Table 2a: 10 ug/ml)
[12] = strain 7023446108, MCR(−), compound at 10 μg (Table 2a: 10 ug/ml)
[13] = strain 7033607097, MCR(−), compound at 10 μg (Table 2a: 10 ug/ml)
[14] = compound at 10 μg (Table 2a: 10 ug/ml)
[15] = strain 6075066346, MCR(+), compound at 5 μg (Table 2a: 5 ug/ml)
[16] = strain 6083655967, MCR(+), compound at 5 μg (Table 2a: 5 ug/ml)
[17] = strain 7103531927, MCR(+), compound at 5 μg

SMILES	Colistin MIC in the presence of the compound [1, 7] [mg/L]	Colistin MIC in the presence of the compound [1, 8] [mg/L]	Colistin MIC in the presence of the compound [1, 9] [mg/L]	MIC ([3]; strain 6083672926, MCR (−)) [mg/L]	MIC ([3]; strain 7023446108, MCR (−)) [mg/L]	MIC ([3]; strain 7033607097, MCR (−)) [mg/L]	MIC ([4]; strain 6075066346, MCR (+)) [mg/L]	MIC ([4]; strain 6083655967, MCR (+)) [mg/L]	MIC ([4]; strain 6103645107, MCR (+)) [mg/L]	MIC ([4]; strain 6123520276, MCR (+)) [mg/L]	MIC ([4]; strain 7013177695, MCR (+)) [mg/L]	MIC ([4]; strain 7023436560, MCR (+)) [mg/L]	MIC ([4]; strain 7023444207, MCR (+)) [mg/L]	MIC [5] [mg/L]	Colistin MIC in the presence of the compound [1, 11] [mg/L]	Colistin MIC in the presence of the compound [1, 12] [mg/L]	Colistin MIC in the presence of the compound [1, 13] [mg/L]	Colistin MIC in the presence of the compound [2, 14] [mg/L]	MIC ([4]; strain 7103531927, MCR (+)) [mg/L]	Colistin MIC in the presence of the compound [6, 15] [mg/L]	further results
CC(C)=CCc1c(OCCCCN(CCCN(C)C)CCCN(C)C)ccc(C(=O)/C=C/c2ccc(OCCCCN(CCCN(C)C)CCCN(C)C)cc2)c1O [LC097]	0.195	0.195	0.195	25 (≈ 31 µM)	12.5 (≈ 15.5 µM)	12.5 (≈ 15.5 µM)	25 (≈ 31 µM)	25 (≈ 31 µM)	12.5 (≈ 15.5 µM)	25 (≈ 31 µM)	12.5 (≈ 15.5 µM)	12.5 (≈ 15.5 µM)	25 (≈ 31 µM)	>25	–	–	–	–	–	–	Colistin MIC in the presence of the compound [2, 10]: >12.5 mg/L
CC(C)=CCc1c(OCCCCN(C)CCCN(C)C)ccc(C(=O)/C=C/c2ccc(OCCCCN(C)CCCN(C)C)cc2)c1O [LC098]	0.195	0.195	0.195	12.5 (≈ 18.8 µM)	6.25 (≈ 9.4 µM)	6.25 (≈ 9.4 µM)	6.25 (≈ 9.4 µM)	6.25 (≈ 9.4 µM)	6.25 (≈ 9.4 µM)	6.25 (≈ 9.4 µM)	6.25 (≈ 9.4 µM)	6.25 (≈ 9.4 µM)	6.25 (≈ 9.4 µM)	>25	–	–	–	–	–	–	Colistin MIC in the presence of the compound [2, 10]: 25 mg/L
COC(=O)C(CCCNC(=N)N)NC(=O)COc1ccc(C2COc3c(ccc4c3C=CC(C)(C)O4)C2)c(OCC(=O)NC(CCCNC(=N)N)C(=O)OC)c1 (stereo not drawn) [LC106]	–	–	–	>25	>25	>25	>25	>25	>25	>25	>25	>25	>25	>25	12.5	6.25	6.25	>25	–	–	–
CC1(C)C=Cc2c(ccc3c2OCC(c2ccc(OCC(=O)NC(CCCNC(=N)N)C(N)=O)cc2OCC(=O)NC(CCCNC(=N)N)C(N)=O)C3)O1 (stereo not drawn) [LC127]	–	–	–	>50	>50	>50	>50	>50	>50	>50	>50	>50	>50	>50	12.5	6.25	6.25	>12.5	–	–	–
CC(C)=CCc1c(OCC(=O)NC(CCCNC(=N)N)C(N)=O)ccc(C(=O)/C=C/c2ccc(OCC(=O)NC(CCCNC(=N)N)C(N)=O)cc2)c1O (stereo not drawn) [LC131]	–	–	–	>50	>50	>50	>50	>50	>50	>50	>50	>50	>50	>50	12.5	6.25	6.25	>12.5	–	–	–
CCOC(=O)C(CCCNC(=N)N)NC(=O)COc1ccc(/C=C/C(=O)c2ccc(OCC(=O)NC(CCCNC(=N)N)C(=O)OCC)c(CC=C(C)C)c2O)cc1 (stereo not drawn) [LC137]	≤0.0975	≤0.0975	≤0.0975	12.5 (≈ 15.5 µM)	12.5 (≈ 15.5 µM)	12.5 (≈ 15.5 µM)	12.5 (≈ 15.5 µM)	12.5 (≈ 15.5 µM)	–	–	–	–	–	–	–	–	–	–	12.5 (≈ 15.5 µM)	–	Colistin MIC in the presence of the compound ([1]; strain 6083672926, MCR(−), compound at 3 μg): 6.25 mg/L; Colistin MIC in the presence of the compound ([1]; strain 6083672926, MCR(−), compound at 4 μg): 0.195 mg/L; Colistin MIC in the presence of the compound ([1]; strain 7023446108, MCR(−), compound at 3 μg): 0.39 mg/L; Colistin MIC in the presence of the compound ([1]; strain 7023446108, MCR(−), compound at 4 μg): <0.0975 mg/L; Colistin MIC in the presence of the compound ([1]; strain 7033607097, MCR(−), compound at 3 μg): 0.195 mg/L; Colistin MIC in the presence of the compound ([1]; strain 7033607097, MCR(−), compound at 4 μg): <0.0975 mg/L; synergy with colistin ([6]; against mcr-1 bacteria, in words): excellent synergy; Colistin MIC in the presence of the compound ([6]; strain 6083655967, MCR(+), compound at 3 μg): 0.78 mg/L; Colistin MIC in the presence of the compound ([6]; strain 7103531927, MCR(+), compound at 3 μg): 0.39 mg/L
CCN(CC)CCOc1ccc(/C=C/C(=O)c2ccc(OCCN(CC)CC)c(CC=C(C)C)c2O)cc1 [LC150]	0.195	0.39	0.195	50 (≈ 95.7 µM)	50 (≈ 95.7 µM)	50 (≈ 95.7 µM)	>50	>50	–	–	–	–	–	–	–	–	–	–	>50	0.39	Colistin MIC in the presence of the compound [6, 16]: 0.195 mg/L; Colistin MIC in the presence of the compound [6, 17]: 0.39 mg/L
CCN(CC)CCCOc1ccc(/C=C/C(=O)c2ccc(OCCCN(CC)CC)c(CC=C(C)C)c2O)cc1 [LC204]	0.39	0.39	0.39	>50	>50	>50	>50	>50	–	–	–	–	–	–	–	–	–	–	>50	0.39	Colistin MIC in the presence of the compound [6, 16]: 0.39 mg/L; Colistin MIC in the presence of the compound [6, 17]: 0.39 mg/L
CC(C)=CCc1c(OCCCN2CCNCCNCCNCC2)ccc(C(=O)/C=C/c2ccc(OCCCN3CCNCCNCCNCC3)cc2)c1O [LC206]	0.39	0.39	0.39	>50	>50	>50	>50	>50	–	–	–	–	–	–	–	–	–	–	>50	0.39	Colistin MIC in the presence of the compound [6, 16]: 0.39 mg/L; Colistin MIC in the presence of the compound [6, 17]: 0.39 mg/L
CC(C)=CCc1c(OCCC[N+](C)(C)C)ccc(C(=O)/C=C/c2ccc(OCCC[N+](C)(C)C)cc2)c1O [LC312]	–	–	–	12.5	6.25	12.5	12.5	12.5	12.5	12.5	12.5	6.25	12.5	>50	<0.0975	<0.0975	<0.0975	>12.5	–	–	–
